Data on twelve compounds can be found in ChEMBL document CHEMBL1201862, “PubChem BioAssay data set” (2004).

Some test systems named below: A549; ACHN; BT-549; CAKI-1; COLO 205; IGROV-1; KM12; M14; Malme-3M; NCI-H226; NCI-H522; OVCAR-5; OVCAR-8; PC-3; SF-539; SK-MEL-28; UACC-257; Hs-578T; SNB-75.
Common to all, as to assay: growth of human tumour cells (NCI), 48 h

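Compound exposure: 48 hours, 5 concentrations, 96-well plates. The concentration for 50% growth inhibition is given as GI50.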 Active and inactive are the calls of the source. No stated cut-off is given here; in the data, active = GI50 up to about 1.1 µM and inactive = higher. Bounds are passed on as bounds.

For the compound `C=C1c2nc3ccccc3n2C=C(c2ccc(Cl)cc2)N1c1ccc(OCCN2CCCCC2)cc1`, the GI50 in the experiment on A549, in the experiment on ACHN, in the experiment with BT-549, in the experiment with CAKI-1, with COLO 205 and in the experiment on IGROV-1 was > 45 µM (inactive) each time. The GI50 with KM12 was > 45 µM (inactive); in the experiment with M14, > 45 µM (inactive); in the experiment on Malme-3M, 8.41 µM (inactive); with NCI-H226, > 100 µM (inactive); in the experiment with NCI-H522, 14.8 µM (inactive); in the experiment on OVCAR-5, > 45 µM (inactive). The GI50 was > 45 µM (inactive) with OVCAR-8; > 45 µM (inactive) with PC-3; > 100 µM (inactive) with SF-539; > 45 µM (inactive) in the experiment on SK-MEL-28; 0.843 µM (active) with UACC-257.

Take `O=C(Nc1ccc(S(=O)(=O)/N=c2\ncccn2C(=O)C(C(F)(F)F)C(F)(F)F)cc1)C(C(F)(F)F)C(F)(F)F`: the GI50 in the experiment on A549 was > 100 µM (inactive); with ACHN it was > 100 µM (inactive); in the experiment on CAKI-1, 0.0368 µM (active); with COLO 205 it was > 100 µM (inactive); in the experiment with Hs-578T, > 100 µM (inactive); in the experiment with IGROV-1, > 100 µM (inactive). The GI50 with KM12 was > 100 µM (inactive); with M14, > 100 µM (inactive); in the experiment with Malme-3M it was 49.2 µM (inactive); with NCI-H226, > 100 µM (inactive); in the experiment on NCI-H522, > 100 µM (inactive); in the experiment with OVCAR-5, > 100 µM (inactive). Besides, the GI50 is > 100 µM (inactive) in the experiment on OVCAR-8; > 100 µM (inactive) with PC-3; > 100 µM (inactive) with SF-539; > 100 µM (inactive) in the experiment with SK-MEL-28; 80.7 µM (inactive) with SNB-75; > 100 µM (inactive) in the experiment with UACC-257.

In the case of `CCCCCCCCCCCCCCCCCCNc1ccn(C2OC(COP(=O)(O)OCCCCCCCCCCCCCCCC)C(O)C2O)c(=O)n1` (centres undefined), the GI50 is > 100 µM (inactive) with A549; > 100 µM (inactive) in the experiment with ACHN; > 100 µM (inactive) in the experiment on CAKI-1; > 100 µM (inactive) with COLO 205; 83.8 µM (inactive) with Hs-578T; > 100 µM (inactive) with IGROV-1. Moreover, the GI50 in the experiment on KM12 was > 100 µM (inactive); in the experiment with M14 it was > 100 µM (inactive); in the experiment with NCI-H226, > 100 µM (inactive); in the experiment with NCI-H522, 51.3 µM (inactive); with OVCAR-5 it was > 100 µM (inactive); in the experiment with OVCAR-8 it was > 100 µM (inactive). The GI50 in the experiment on PC-3 is > 100 µM (inactive); in the experiment on SF-539, > 100 µM (inactive); in the experiment on SK-MEL-28 it was > 100 µM (inactive); with SNB-75, 74.1 µM (inactive); with UACC-257, > 100 µM (inactive).

Take `CCCCN(CCCC)CCC(O)c1cc2c(Cl)cc(Cl)cc2c2cc(C(F)(F)F)ccc12` (centres undefined): the GI50 is 12 µM (inactive) with ACHN; 12.2 µM (inactive) in the experiment on CAKI-1; 10.8 µM (inactive) in the experiment on COLO 205; 12.7 µM (inactive) with IGROV-1; 8.93 µM (inactive) with M14; 16.4 µM (inactive) in the experiment with Malme-3M. The GI50 with NCI-H522 is 17.5 µM (inactive); in the experiment on OVCAR-5 it was 12.9 µM (inactive); in the experiment on OVCAR-8, 14.3 µM (inactive); in the experiment on PC-3, 10.1 µM (inactive); in the experiment with SF-539 it was 9.4 µM (inactive); with SK-MEL-28, 16.7 µM (inactive). The GI50 is 11.7 µM (inactive) in the experiment with SNB-75 and 14.5 µM (inactive) in the experiment with UACC-257.

As to `COc1cc2oc(=O)cc(C)c2c(OC)c1OC`, the GI50 in the experiment with A549, with ACHN, with COLO 205, in the experiment with Hs-578T, in the experiment with IGROV-1 and in the experiment on KM12 was > 100 µM (inactive) in each case. Also, the GI50 with M14, in the experiment on Malme-3M, in the experiment with NCI-H226, in the experiment with OVCAR-5, with OVCAR-8 and in the experiment on PC-3 was > 100 µM (inactive) each time. Further, the GI50 is > 100 µM (inactive) with SK-MEL-28, 67.6 µM (inactive) in the experiment with SNB-75 and > 100 µM (inactive) in the experiment with UACC-257.

Take `CC(C)Oc1c(O)c2c3c(oc(=O)n3C=CC2c2ccccc2)c1OC(C)C` (centres undefined): the GI50 was 27.3 µM (inactive) with A549; > 10 µM (inactive) in the experiment with ACHN; 29.2 µM (inactive) in the experiment on CAKI-1; 22.1 µM (inactive) in the experiment with COLO 205; 21.9 µM (inactive) with IGROV-1; 21.5 µM (inactive) with KM12. Further, the GI50 in the experiment with M14 was 20 µM (inactive); with NCI-H226 it was 27.6 µM (inactive); in the experiment on OVCAR-5, 34.4 µM (inactive); with OVCAR-8, 31.9 µM (inactive); with PC-3, 17 µM (inactive); in the experiment with SF-539 it was 19.7 µM (inactive). The results for the GI50 in the experiment with SK-MEL-28, in the experiment with SNB-75 and in the experiment with UACC-257 were 22.5 µM (inactive), 21.9 µM (inactive) and 25.1 µM (inactive), respectively.

`CC(C)CC(=O)CC(C)[C@]1(CCCOCc2ccccc2)C(=O)N2CCC3(C[C@@]24CCC[C@H]41)OCCO3` (some centres undefined): the GI50 in the experiment with CAKI-1, in the experiment with COLO 205, with IGROV-1, in the experiment with KM12, with M14 and in the experiment on NCI-H226 was > 10 µM (inactive) in each case. For the same compound, the GI50 in the experiment on NCI-H522, in the experiment on OVCAR-5, in the experiment on OVCAR-8, in the experiment with PC-3 and with SF-539 was > 10 µM (inactive) each time.

Take `CCOC(=O)C(Cc1c(C=O)[nH]c2ccccc12)(NC(=O)c1ccccc1)C(=O)OCC`: the GI50 was 19.1 µM (inactive) in the experiment on A549; 14.4 µM (inactive) in the experiment with ACHN; 18.8 µM (inactive) with COLO 205; 20.4 µM (inactive) in the experiment on IGROV-1; 10.3 µM (inactive) in the experiment with KM12; 17 µM (inactive) in the experiment with M14. In addition, the GI50 in the experiment with Malme-3M was 17.7 µM (inactive); with NCI-H226, 19.5 µM (inactive); in the experiment with OVCAR-5, 20.5 µM (inactive); with OVCAR-8, 19.1 µM (inactive); with SF-539 it was 16.3 µM (inactive); in the experiment with SK-MEL-28, 16.9 µM (inactive). The GI50 with UACC-257 was 16.9 µM (inactive).

As for `O=C(C/C(=N\NC(=O)C[n+]1ccccc1)C(=O)Nc1nc2ccc([N+](=O)[O-])cc2s1)CC(c1ccccc1)c1c(O)c2ccccc2oc1=O` (centres undefined), the GI50 in the experiment on A549, with ACHN, in the experiment on CAKI-1, in the experiment with COLO 205, with IGROV-1 and with KM12 was > 100 µM (inactive) each time. The GI50 with M14 is > 100 µM (inactive); in the experiment with Malme-3M, > 100 µM (inactive); with NCI-H522, 99.5 µM (inactive); with OVCAR-5, > 100 µM (inactive); with OVCAR-8 it was > 100 µM (inactive); in the experiment on SF-539 it was > 100 µM (inactive). Further, the GI50 with SK-MEL-28 and in the experiment with UACC-257 was > 100 µM (inactive) each time.

As for `COC(=O)c1ccc2c(c1)CC1(C2)Cc2ccc3c(c2C1)CCC3` (centres undefined), the GI50 is 29.9 µM (inactive) with A549; 57 µM (inactive) in the experiment with ACHN; 0.0543 µM (active) in the experiment with CAKI-1; 9.84 µM (inactive) in the experiment with COLO 205; 37.9 µM (inactive) with Hs-578T; 42.8 µM (inactive) with IGROV-1. In addition, the GI50 in the experiment with KM12 is 12.6 µM (inactive); with M14, 0.574 µM (active); with Malme-3M, 17.4 µM (inactive); in the experiment on NCI-H226 it was 47.6 µM (inactive); with NCI-H522 it was 20.7 µM (inactive); in the experiment on OVCAR-5 it was > 100 µM (inactive). The GI50 with OVCAR-8 was 69.2 µM (inactive); in the experiment with PC-3, 6.98 µM (inactive); with SF-539, 47.8 µM (inactive); in the experiment on SK-MEL-28, 86.1 µM (inactive); with SNB-75 it was 33.3 µM (inactive); in the experiment with UACC-257, 20.2 µM (inactive).

For `Cc1cn(CC2=NCC(O)CN2)c(=O)[nH]c1=O` (centres undefined), the GI50 in the experiment with A549, in the experiment on ACHN, in the experiment with CAKI-1, in the experiment with COLO 205, in the experiment on IGROV-1 and in the experiment with KM12 was > 100 µM (inactive) in each case. Also, the GI50 in the experiment with M14, in the experiment with Malme-3M, with NCI-H226, in the experiment on NCI-H522, in the experiment on OVCAR-5 and in the experiment on OVCAR-8 was > 100 µM (inactive) each time. Also, the GI50 with PC-3, with SF-539, in the experiment on SK-MEL-28 and in the experiment on UACC-257 was > 100 µM (inactive) each time.

As to `N#C/C(C(=O)Nc1ccc(Cl)cc1)=C(/N)N1CCCC1`, the GI50 with A549, in the experiment on ACHN, with BT-549, in the experiment with CAKI-1, with COLO 205 and in the experiment with IGROV-1 was > 100 µM (inactive) throughout. The GI50 with KM12, in the experiment with M14, with NCI-H226, in the experiment on OVCAR-5, in the experiment with OVCAR-8 and in the experiment on PC-3 was > 100 µM (inactive) each time. For the same compound, the GI50 in the experiment with SF-539, with SK-MEL-28, in the experiment with SNB-75 and with UACC-257 was > 100 µM (inactive) in each case.
